Measurements published in patent publication US9394307B2, “Fused heteroaryl pyridyl and phenyl benzenesuflonamides as CCR2 modulators for the treatment of inflammation” (ChemoCentryx, Inc., priority 2007, dated 2016).
pIC50: −log10 of the molar value. Several values for one entry are separate records, joined by “and”; a condition that tells them apart may be missing. Equal entries are not always repeated. Where two headings read alike, the source gives them in different places. One block for each molecule: values may come before it.

How the values were obtained:
[1] = target: CYP3A4 (Homo sapiens (Human), UniProt P08684); assay: CYP3A4 inhibition assay in pooled human liver microsomes; assay type: in vitro ADME; settings: NADPH, 37° C., read-out: CYP 3A4 Inhibition IC50
CYP3A4, sequence (P08684 whole entry): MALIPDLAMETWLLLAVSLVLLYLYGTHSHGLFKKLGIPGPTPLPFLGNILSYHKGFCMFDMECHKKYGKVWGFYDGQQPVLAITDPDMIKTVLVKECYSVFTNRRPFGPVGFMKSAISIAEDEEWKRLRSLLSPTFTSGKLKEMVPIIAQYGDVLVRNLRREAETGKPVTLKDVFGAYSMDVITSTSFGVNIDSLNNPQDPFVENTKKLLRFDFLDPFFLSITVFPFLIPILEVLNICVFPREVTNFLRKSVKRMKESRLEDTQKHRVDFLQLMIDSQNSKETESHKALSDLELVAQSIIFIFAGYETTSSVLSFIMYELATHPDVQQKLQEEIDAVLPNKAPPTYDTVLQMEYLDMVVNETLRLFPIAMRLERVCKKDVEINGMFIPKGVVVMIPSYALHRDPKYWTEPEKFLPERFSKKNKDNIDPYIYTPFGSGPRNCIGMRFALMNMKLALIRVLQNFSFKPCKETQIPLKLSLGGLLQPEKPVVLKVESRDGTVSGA
Protocol: (§1) The test compounds were incubated with pooled human liver microsomes at 37° C. in the presence of NADPH and appropriate concentrations of substrates specific for CYP2C9 and 3A4. The final assay concentrations of human liver microsomes and substrates, the initial substrate stock solution concentrations in DMSO, and the times used for the various isozyme incubations are summarized in Table 4.
(§2) 120 μL of a mixture of human liver microsomes (HLM) in 50 mM potassium phosphate/5 mM MgCl2 buffer was added into all wells of row A in a 96-well plate. The concentration of microsomal protein was 2-fold the intended protein concentration for the particular isozyme assay recorded in Table 4. In addition, 80 μL of this human liver microsome preparation spiked with 1% DMSO was dispensed into all wells of rows B through H.
1.2 μL of each individual test compound in DMSO (10 mM) was added to the first 10 wells of row A (5 different test compounds each in duplicate). Additionally, 1.2 μL of the DMSO stock of the control inhibitor for the isozyme under study was added into the final two wells of row A to give a concentration two-fold above the highest final concentration. (See Table 5 for the final control inhibitor concentrations)
This process was repeated for rows D through G. After mixing, 40 μL was removed and discarded from the wells of row G.
The plate was covered and pre-incubated for 10 minutes in a 37° C. incubator. […]
(§3) Samples were analyzed by the LC-MS/MS method. Each metabolite (Table 6) derived from the particular substrate for each different CYP450 isoform was monitored. […]
(§4) AUCtest, AUCcontrol and AUCblank are the peak area count for the metabolite of the control in the presence of test article or positive inhibitor, the peak area count of metabolite of the control without test article, and peak area count observed in the microsome blank, respectively. […] The IC50 values were calculated using a 4-parameter fit in XLFit™ (IDBS Lid, Guildford, UK).

[2] = Intravenous/oral pharmacokinetic study in Sprague-Dawley rats; assay type: in vivo; settings: rat, plasma, male Sprague-Dawley rats; for MRT: read-out: Rat PK MRT (converted); for half-life: read-out: Rat PK T1/2
Protocol: An intravenous/oral pharmacokinetic study with the selected compounds was conducted in male Sprague-Dawley rats weighing between 0.24 and 0.36 kg. Blood samples were collected at predetermined time points and the corresponding plasma samples from the animals were analyzed for test compound concentrations using an LC-MS/MS method. The pharmacokinetic parameters were derived from the plasma concentration versus time curve.
Eight animals weighing between 0.24 and 0.36 kg were used for this study. Two animals were used for the i.v. dosing, whereas the later six were for oral dosing.
For i.v. dosing, a solution formulation of test compound was prepared in propylene glycol/N,N-dimethyl acetamide/EtOH (31.6/31.6/36.8) at 1 mg/mL and each animal received 1 mL/kg. For oral dosing, a the test compounds were suspended in 1% HPMC at 0.5 mg/mL and each animal received 10 mL/kg.
Animals were fasted overnight and examined prior to dosing and at the conclusion of the study. For intravenous dosing, blood (0.2 mL) was drawn at pre-dose and at 2, 5, 10, 15, and 30 minutes, 1, 2, 4, 6, and 8 hours post-dose. For oral dosing, blood (0.2 mL) was drawn at pre-dose and at 5, 15, and 30 minutes, 1, 1.5, 2, 4, 6, 8, and 24 hours post-dose. Blood was sampled from canulated animals and then placed into chilled polypropylene tubes containing sodium EDTA as the anticoagulant and kept on ice until centrifugation. Plasma was collected through centrifugation (Eppendorf Centriguge 5417R) at 12000 rpm and 4° C. for 6 minutes and stored at −20° C. until analysis.
Plasma samples (50 μL) were extracted with 150 μL acetonitrile containing the internal standard on a linear shaker for 10 min. The samples were centrifuged at 4450 RPM for 10 min at 4° C. (Allegra X-15R centrifuge, Beckman Coulter, Inc., Fullerton, Calif.). 80 μL of the resultant supernatant was transferred into new plate wells containing 80 μL 0.1% formic acid in water and thoroughly mixed.
Extracted samples prepared using the above procedure were separated by high-performance liquid chromatography using a Shimadzu (Kyoto, Japan) system equipped with two LC-10 AD pumps and a C-18 column (Waters Sunfire, 2×30 mm, 3.5 μm; 10 μl injection) using a mobile phase consisting of (A) 0.1% formic acid in water and (B) 0.1% formic acid in acetonitrile, at a flow rate of 0.35 mL/min. The gradient was 0-1.5 min 5% B, 1.5-2.5 min 5-95% B, 2.5-2.7 min 95% to 5% B, and 2.7-4.0 min 5% B. The HPLC elute was routed into an Applied Biosystems (Foster City, Calif.) Sciex API 3000 triple quadrupole mass spectrometer, operating in the Turbo Ionspray positive ionization MS/MS mode for analysis. Acquisition and integration were performed with Applied Biosystems-Sciex Analyst software (version 1.4.1). The calibration curve was obtained through a quadratic (i.v.) or linear (p.o.) regression and the calibration range was 4-5000 ng/mL and 2-5000 ng/mL for the i.v. and p.o. studies, respectively.
A total of eleven time points were obtained for each dosing route during the blood collection period. Descriptive pharmacokinetic parameters were determined from the plasma concentration-time curve by a standard non-compartmental analysis (Wagner, 1993) from each animal and dose route. • Half-life (T1/2): Terminal half-life. • Cmax: Maximum plasma concentration • AUC0-∞: Area under the plasma concentration-time curve from time of dosing extrapolated to infinity. • CL: Total body clearance. • MRT0-∞: Mean residence time from the time of dosing extrapolated to infinity • Vdss: Volume of distribution at steady state. • F: Bioavailability.
Pharmacokinetic analysis was performed by using XLFit® v.4.1 (ID Business Solutions Inc., Alameda, Calif.).

[3] = target: CYP2C9 (Homo sapiens (Human), UniProt P11712); assay: CYP2C9 inhibition assay in pooled human liver microsomes; assay type: in vitro ADME; settings: NADPH, 37° C., diclofenac substrate, read-out: CYP 2C9 Inhibition IC50
CYP2C9, sequence (P11712 whole entry): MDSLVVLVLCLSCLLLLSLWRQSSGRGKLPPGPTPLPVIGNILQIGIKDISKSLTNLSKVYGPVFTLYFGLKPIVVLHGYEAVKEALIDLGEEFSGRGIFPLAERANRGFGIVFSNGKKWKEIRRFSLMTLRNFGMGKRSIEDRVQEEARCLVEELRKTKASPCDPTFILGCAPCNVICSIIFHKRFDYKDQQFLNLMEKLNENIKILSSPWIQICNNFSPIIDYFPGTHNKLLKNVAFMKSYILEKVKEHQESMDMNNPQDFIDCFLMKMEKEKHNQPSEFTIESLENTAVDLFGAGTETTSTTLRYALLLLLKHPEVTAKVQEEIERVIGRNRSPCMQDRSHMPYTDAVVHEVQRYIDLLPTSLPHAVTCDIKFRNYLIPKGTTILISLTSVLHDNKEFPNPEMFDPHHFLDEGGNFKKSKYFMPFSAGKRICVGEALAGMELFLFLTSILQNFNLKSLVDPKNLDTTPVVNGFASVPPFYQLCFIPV
Protocol: as §1
as §2, with “H. […]” for “H.”
as §3, §4

[4] = target: CCR2 (Homo sapiens (Human), UniProt P41597); assay: CCR2 chemotaxis assay (conventional migration assay, THP-1 cells, MCP-1); assay type: cell-based
CCR2, sequence (P41597 other isoform, or with tags, fused parts or gaps isoform P41597-2): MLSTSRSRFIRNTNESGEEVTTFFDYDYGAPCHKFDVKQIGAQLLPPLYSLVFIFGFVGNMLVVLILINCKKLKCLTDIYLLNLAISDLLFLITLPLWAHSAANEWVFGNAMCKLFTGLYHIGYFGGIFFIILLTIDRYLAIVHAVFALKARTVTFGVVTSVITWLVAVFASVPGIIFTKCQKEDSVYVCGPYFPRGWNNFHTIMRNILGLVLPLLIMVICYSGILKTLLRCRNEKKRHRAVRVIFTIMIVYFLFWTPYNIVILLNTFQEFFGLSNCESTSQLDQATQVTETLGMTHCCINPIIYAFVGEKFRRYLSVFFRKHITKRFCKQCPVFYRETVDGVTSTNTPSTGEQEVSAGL

[5] = in vivo; settings: male, beagle, dog, plasma
[6] = Pharmacokinetics and oral bioavailability in the beagle dog; settings: male beagle dog, oral 5 mg/kg vs i.v. 1 mg/kg
[7] = THP-1 cells, 0.1 nM MCP-1, read-out: IC50 in the CCR2 chemotaxis assay

pIC50 [1]: 5.52 | MRT [2]: 0.583 h
SMILES: Cc1cnc(C(=O)c2ccnc3[nH]ncc23)c(NS(=O)(=O)c2ccc(Cl)c(C(F)(F)F)c2)c1

pIC50 [1]: 5.52 | MRT [2]: 0.367 h | half-life [2]: 0.317 h
SMILES: COC1=C(C(=O)c2ncc(C)cc2NS(=O)(=O)c2ccc(Cl)c(C(F)(F)F)c2)C2C=CNC2N=C1 (stereo not shown)

pIC50 [3]: 5.52 | MRT [2]: 0.35 h | half-life [2]: 0.7 h
SMILES: O=C(C1=CC=NC2NC=CC12)c1ncc(Cl)cc1NS(=O)(=O)c1ccc(Cl)c(C(F)(F)F)c1 (stereo not shown)

The remaining lines, values behind:

SMILES: O=C(c1ncc(Cl)cc1NS(=O)(=O)c1ccc(Cl)c(C(F)(F)F)c1)c1ncnc2[nH]ccc12
pIC50 [3]: 4.82 | MRT [2]: 1.13 h | half-life [2]: 2.12 h

SMILES: Cc1cnc(C(=O)c2ncnc3[nH]ccc23)c(NS(=O)(=O)c2ccc(Cl)c(C(F)(F)F)c2)c1 [Compound 5, 4-Chloro-N-[5-methyl-2-(7H-pyrrolo[2,3-d]pyrimidine-4-carbonyl)-pyridin-3-yl]-3-trifluoromethyl-benzenesulfonamide]
pIC50 [4]: ~8.30 | MRT ([5]; iv, 1 mg/kg): 7.2 h | Vd ([5]; iv, 1 mg/kg): 0.1 L/kg | clearance ([5]; iv, 1 mg/kg): 0.2 mL/min/kg | half-life ([5]; iv, 1 mg/kg): 4.7 h | bioavailability ([5]; oral, 5 mg/kg): ~100% | Cmax ([5]; po, 5 mg/kg): 44400 ng/mL and ~59.5 µM | Tmax ([5]; po, 5 mg/kg): 1.5 h | oral bioavailability [6]: about 100%

SMILES: O=C(c1ncc(Cl)cc1NS(=O)(=O)c1ccc(Cl)c(C(F)(F)F)c1)c1cncc2[nH]ccc12 [Compound 11, 4-Chloro-N-[5-chloro-2-(1H-pyrrolo[2,3-c]pyridine-4-carbonyl)-pyridin-3-yl]-3-trifluoromethyl-benzenesulfonamide]
pIC50 [4, 7]: > 6.00

SMILES: Cc1cnc(C(=O)c2cncc3[nH]ccc23)c(NS(=O)(=O)c2ccc(Cl)c(Cl)c2)c1 [Compound 12, 3,4-Dichloro-N-[5-methyl-2-(1H-pyrrolo[2,3-c]pyridine-4-carbonyl)-pyridin-3-yl]-benzenesulfonamide]
pIC50 [4, 7]: > 6.00

SMILES: Cc1cnc(C(=O)c2ncnc3[nH]ccc23)c(NS(=O)(=O)c2ccc(Cl)c(C(F)(F)F)c2)c1 [drawing 76]
pIC50 [1]: 4.70 | MRT [2]: 2.25 h

SMILES: Cc1cnc(C(=O)c2ncnc3[nH]ccc23)c(NS(=O)(=O)c2ccc(Cl)c(C(F)(F)F)c2)c1 [drawing 78]
half-life [2]: 2.68 h
